Experiments:
Nfo = target: T1, Nfo (Pseudomonas putida, UniProt F8G0M2); experiment: coupled formate dehydrogenase assay, NADH at […] nm; format: biochemical; conditions: 50 mM Tris-HCl pH 8.0, 20°C, NAD
T1 sequence (F8G0M2 1-255): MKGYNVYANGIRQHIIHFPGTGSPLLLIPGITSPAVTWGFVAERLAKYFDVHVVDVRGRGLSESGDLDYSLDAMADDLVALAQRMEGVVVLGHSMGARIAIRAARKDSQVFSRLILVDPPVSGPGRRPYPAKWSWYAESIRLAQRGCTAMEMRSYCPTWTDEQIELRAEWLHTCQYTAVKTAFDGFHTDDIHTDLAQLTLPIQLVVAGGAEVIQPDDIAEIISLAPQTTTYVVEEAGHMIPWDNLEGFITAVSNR

Ami = target: T2, Ami (Pseudomonas putida, UniProt F8G0M0); experiment: coupled glutamate dehydrogenase assay, NADPH at […] nm; format: biochemical; conditions: 50 mM Tris-HCl, 1 mM EDTA, 20°C, alpha-ketoglutarate
T2 sequence (F8G0M0 1-208): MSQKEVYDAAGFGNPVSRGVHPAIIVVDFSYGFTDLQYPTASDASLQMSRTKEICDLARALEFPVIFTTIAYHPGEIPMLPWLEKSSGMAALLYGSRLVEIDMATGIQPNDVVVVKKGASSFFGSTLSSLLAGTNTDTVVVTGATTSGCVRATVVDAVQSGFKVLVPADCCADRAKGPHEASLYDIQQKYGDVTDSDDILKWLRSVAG

Iso = target: T3, Iso (Pseudomonas putida, UniProt F8G0M3); experiment: spectrophotometric, maleate consumption at […] nm; format: biochemical; conditions: read-out: apparent Km; 50 mM Tris-HCl pH 8.4, 30°C, 1-thioglycerol
T3 sequence (F8G0M3 1-252): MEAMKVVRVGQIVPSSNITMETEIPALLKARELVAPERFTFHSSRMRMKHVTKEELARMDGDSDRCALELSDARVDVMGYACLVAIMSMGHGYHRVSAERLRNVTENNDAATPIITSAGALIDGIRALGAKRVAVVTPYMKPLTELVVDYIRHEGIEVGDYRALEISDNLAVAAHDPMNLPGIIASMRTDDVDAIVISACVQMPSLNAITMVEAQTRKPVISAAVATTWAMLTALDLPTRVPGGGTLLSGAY

purified protein = substrate: Oc1ccc(O)nc1; experiment: purified protein; format: biochemical, Pseudomonas putida; conditions: 0.025 mM Fe2+, 18.2 mM Tris-HCl pH 8.0, 20°C

O=CNC(=O)/C=C\C(=O)O [NFM]
coupled formate dehydrogenase assay, NADH at 340 nm (Nfo): Nfo activity was measured through its production of formate by a coupled reaction

NC(=O)/C=C\C(=O)O [maleamic acid]
coupled glutamate dehydrogenase assay, NADPH at 340 nm (Ami): Purified Ami (Fig. 3A) transformed maleamic acid to maleic acid

O=C(O)/C=C\C(=O)O [maleate]
Km (Iso): 689 µM

B1: Hpo (Pseudomonas putida S16) (protein)
chain: MDHVSFTEICLRQLKMSGVHEGERLIVLTQGHERLAYADAFMAAGQRLGAEMYHMRLPSPLPSNGWAVGVTGLADLPGAVEALKNCDMLIDCVFLLFSAEQFEIQAAGTRILTAVEPPELLARMLPFPELREKVSIAAELVENAKDMRITSPHGTDITYKLNTYPTIAEYACTDTPGRWDHWPSGFVFTGGDDDGVDGTIVVAPGDVLLPQNLMVREPITYTIEKGWIVDIRGGLEAQIVNSYMDSFNDPRGKGMSHVGWGMNPHAKWHNFVPGQFTGGMGMELRSFYGNVMFSTGPNNELGGSNDTACHLDIPMRNCSLFLDDTPVVIDGDIVVKEIQLVQR
Km (purified protein): 0.168 µM

— article PMC3332521 (Scientific Reports, 2012)
